Reference: US11643439B2, “Multi-target compound with anticoagulation and antiplatelet activity, preparation method therefor, and use thereof” (SHAANXI MICOT TECHNOLOGY LIMITED COMPANY, priority 2015, dated 2023)
Bridge positions count the residues as written; N and C are the ends. Square brackets hold non-standard residues; d marks the D form. Peptide text beside a SMILES is read from it. hArg = N=C(N)NCCCC[C@H](N)C(=O)O; Mpa = O=C(O)CCS

System: ADP-induced human platelet aggregation
Assay: ADP-induced human platelet aggregation in vitro
Assay type: cell-based
Details: human PRP, 3 × 10−6 mol/L
Protocol: The drawn blood was centrifuged at 810 rpm for 8 minutes to obtain platelet rich plasma (PRP), which was taken out, then the blood sample was further centrifuged at 3510 rpm for 8 minutes to obtain platelet poor plasma (PPP).
Determination of platelet aggregation: A platelet aggregation instrument was started up and preheated for 30 minutes, and then calibrated with PPP. Into the test cups 270 μl of PRP was added, and then 10 μl of polypeptide 1, polypeptide 2, polypeptide 3 or polypeptide 4 (1.0×10^−7 mol/L) and/or 20 μl of physiological saline were added respectively, till a total volume of 300 μl. After incubation for 5 min, 5 μl of inducer ADP and 5 μl of epinephrine were added to start the test. After 5 minutes, the test was completed, and the maximum aggregation rate within the 5 minutes was recorded, and the data and maps were printed.

## N=C(N)NCCCC[C@@H]1NC(=O)CCSSC[C@@H](C(N)=O)NC(=O)[C@@H]2CCCN2C(=O)[C@H](Cc2c[nH]c3ccccc23)NC(=O)[C@H](CC(=O)O)NC(=O)CNC1=O [Integrilin] ([Mpa][hArg]GDWPC-NH2; disulfide 1-7)
  inhibitory rate of platelet aggregation: 100%
